# Measured values reported in article PMC8175350, “Drug repurposing screens identify chemical entities for the development of COVID-19 interventions” (Nature Communications, 2021).
# Several values for one entry are separate records, joined by “and”; a condition that tells them apart may be missing. Equal entries are not always repeated. Where two headings read alike, the source gives them in different places.
# Tests used:
# in vitro [1] = settings: human
# [2] = Pharmacokinetic studies in Syrian hamsters, PO; format: in vivo; settings: male, Syrian, hamster, in vivo
# Method: Pharmacokinetic studies were conducted at Scripps Research Institute’s Animal Models Core in accordance with IACUC guidelines (IACUC Protocol #09-0004-5). Eight-week-old male Syrian Hamsters (Charles River; three per group) were dosed PO as indicated for each compound and formulation. Plasma concentration of each test article was monitored up to 48 h. Nelfinavir was formulated in 10% DMSO/90% corn oil and MK-4482 was formulated in 10% PEG400/2.5% Cremaphor RH40 for both pharmacokinetic and efficacy studies.
# SARS-CoV-2 [3] = experiment: microbe, parasite or virus in culture; format: cell-based; settings: for %infected: Calu-3, replicates n=1, n=2
# SARS-CoV-2 [4] = experiment: microbe, parasite or virus in culture; format: cell-based
# SARS-CoV-2 [5] = format: cell-based; settings: 72 hpi
# in vitro [6] = settings: human; remark: listed apart in the source
# in vitro [7] = settings: human, Calu-3 uninfected cytotoxicity CC50 GeoMean
# SARS-CoV-2 [8] = experiment: microbe, parasite or virus in culture; format: cell-based; remark: listed apart in the source
# SARS-CoV-2 [9] = experiment: Hamster lung histopathology/infiltrate quantification (H&E, ImageJ); format: in vivo, Golden Syrian hamster; settings: 500 mg/kg
# Text: ImageJ (V1.53) software is used to quantify H&E-stained slide images (at ×20 magnification). Images are first converted to 8-Bit (Image > Type > 8-Bit), their threshold is adjusted (Image > Adjust > Threshold), a threshold value between 70–80% is chosen to ensure only dark stained nuclei are detected. Following thresholding the image is converted to a mask (Process > Binary > Convert to Mask) and analyzed (Analyze > Analyze Particles) with default settings, adding display results and show outline and the output was exported into GraphPad Prism (V9.0.0) where the nonparametric, two-sided Mann–Whitney statistical test was used to calculate significance.
# [10] = Uninfected HeLa-ACE2 24 h live/dead cytotoxicity counter screen; format: cell-based, human; settings: human, uninfected HeLa-ACE2 cells, detail block; read-out: HeLa-ACE2 uninfected cytotoxicity CC50 GeoMean
# HeLa-ACE2 cells [11] = experiment: as above; format: cell-based, human; settings: HeLa-ACE2; concentration log[M] -8.59517; replicates
# SARS-CoV-2 [12] = experiment: Hamster lung viral titer by plaque assay, day 5; format: in vivo, Golden Syrian hamster; settings: for SARS-CoV-2 viral load in lung by plaque quantification, individual animals: values look like log10
# SARS-CoV-2 [13] = experiment: Hamster lung RNA-Seq analysis; format: in vivo, Golden Syrian hamster; settings: 500 mg/kg
# Calu-3 cells [14] = test system: Calu-3 cells
# HeLa-ACE2 cells [15] = experiment: cells; format: cell-based, human; settings: Homo sapiens, HeLa-ACE2; read-out: HeLa-ACE2 TOA cell count EC50 GeoMean
# SARS-CoV-2 [16] = experiment: Golden Syrian hamster SARS-CoV-2 efficacy model, body weight; format: in vivo; settings: for group average % of starting weight: day 5 of infection
# Calu-3 cells [17] = experiment: cells; settings: Homo sapiens
# HeLa-ACE2 cells [18] = experiment: cells; settings: Homo sapiens
structure (smiles),measurement,setting,value
CC(C)C(=O)OC[C@H]1O[C@@H](n2ccc(NO)nc2=O)[C@H](O)[C@@H]1O [MK-4482],CC50 at 72 h,in vitro [1],> 39.8 µM
same,Cl,[2],401.00 mL/min/kg
same,%infected,SARS-CoV-2 [3]; concentration log[M] -5.00096,-32.7882% and -37.4837% and -33.6325% and -41.3774% and -26.9927% and -42.8416%
same,%infected,SARS-CoV-2 [3]; concentration log[M] -5.47808,-27.4805% and -3.693% and -9.149% and -11.3438% and 9.653% and -8.935%
same,%infected,SARS-CoV-2 [3]; concentration log[M] -6.08014,23.1125% and 4.59% and 25.286% and 17.3454% and 15.2546% and 10.3832%
same,%infected,SARS-CoV-2 [3]; concentration log[M] -6.42922,17.3493% and 17.6914% and 5.1734% and 5.136% and 26.2062% and 8.78%
same,%infected,SARS-CoV-2 [3]; concentration log[M] -6.90623,7.3785% and 13.9122% and -0.1637% and 2.863% and 27.9695% and 13.9935%
same,%infected,SARS-CoV-2 [3]; concentration log[M] -7.50836,-8.777% and 19.9854% and 1.789% and 24.5386% and 23.5481% and -28.3332%
same,%infected,SARS-CoV-2 [3]; concentration log[M] -7.85886,17.2433% and 32.9409% and -21.7492% and 16.4627% and 42.3108% and 21.6153%
same,%infected,SARS-CoV-2 [3]; concentration log[M] -8.33602,11.8145% and 8.098% and -0.8953% and 19.1715% and 30.2349% and 22.7038%
same,Emax,"SARS-CoV-2 [3]; Severe acute respiratory syndrome coronavirus 2, Calu-3, 48 h, curve plateau at infinite concentration, read-out: Calu-3 CoV-2 Sinf Average",100%
same,EC50,"SARS-CoV-2 [3]; Severe acute respiratory syndrome coronavirus 2, Calu-3, detail block, read-out: Calu-3 CoV-2 EC50 GeoMean",> 9.98 µM
same,TOA,"SARS-CoV-2 [4]; HeLa-ACE2, log[M] -7.8551",2.9089 and 4.102 and 5.064
same,EC50,"SARS-CoV-2 [4]; Severe acute respiratory syndrome coronavirus 2, HeLa-ACE2, detail block, read-out: HeLa-ACE2 TOA CoV-2 EC50 GeoMean",> 9.59 µM
same,TOA:HeLa-ACE2 EC50 Ratio,SARS-CoV-2 [4]; TOA EC50 / HeLa-ACE2 SARS-CoV-2 EC50,1.014
same,reduction in apical viral loads,SARS-CoV-2 [5],> 1 log
same,CC50 at 72 h,in vitro [6],> 39.8 µM
same,CC50 at 48 h,in vitro [7],> 29.9 µM
same,Emax,"SARS-CoV-2 [8]; Severe acute respiratory syndrome coronavirus 2, HeLa-ACE2, 24 h, curve plateau at infinite concentration, read-out: HeLa-ACE2 CoV-2 Sinf Average",100%
same,EC50,"SARS-CoV-2 [8]; Severe acute respiratory syndrome coronavirus 2, HeLa-ACE2, detail block, read-out: HeLa-ACE2 CoV-2 EC50 GeoMean",> 9.45 µM
same,HeLa-ACE2 SI,"SARS-CoV-2 [8]; selectivity index, uninfected HeLa-ACE2 CC50 / SARS-CoV-2 EC50",> 4.21
same,histological examination of lungs,SARS-CoV-2 [9],protected
same,abundance of cellularity and infiltrates in the lungs (ImageJ),"SARS-CoV-2 [9]; MK-4482-treated, Hamster 1-4, individual images",2983 and 5397 and 4186 and 5390 and 1931 and 4673 and 3775 and 5624 and 2350 and 4146 and 3662 and 5094 and 4440 and 4933 and 3481 and 5058 and 2520 and 4471 and 3837 and 4151 and 2838 and 4738 and 3878 and 3011 and 2773
same,CC50 at 24 h,[10],> 39.8 µM
same,cytotox,HeLa-ACE2 cells [11],-0.706 and -12.7385 and -12.928 and 0.5106 and 4.684 and -11.4286 and -5.289 and -2.8 and 6.41
same,viral reduction,"SARS-CoV-2 [12]; 50 mg/kg PO BID, compared to vehicle control",99%
same,live viral titers in the lungs,"SARS-CoV-2 [12]; 50 mg/kg PO BID, day 5, group average",4.5 × 10^3 PFU/lung
same,"SARS-CoV-2 viral load in lung by plaque quantification, individual animals","SARS-CoV-2 [12]; 50 mg/kg, day 5",4.176 and 0 and 3.653 and 4.477
same,live viral titers in the lungs,"SARS-CoV-2 [12]; 150 mg/kg PO BID, day 5",undetectable
same,"SARS-CoV-2 viral load in lung by plaque quantification, individual animals","SARS-CoV-2 [12]; 150 mg/kg, day 5",0
same,live viral titers in the lungs,"SARS-CoV-2 [12]; 500 mg/kg PO BID, day 5",undetectable
same,"SARS-CoV-2 viral load in lung by plaque quantification, individual animals","SARS-CoV-2 [12]; 500 mg/kg, day 5",0
same,genes significantly down regulated vs infected vehicle-treated controls (DESeq2),SARS-CoV-2 [13],66 genes
same,unsupervised hierarchical clustering of lung RNA-Seq samples,SARS-CoV-2 [13],clustered together with uninfected samples
same,uninfected Calu-3 CC50,Calu-3 cells [14],> 29.85 ×÷ 1 (n=2) μM
same,cytotox,Calu-3 cells [14]; human,-7.212
same,EC50,HeLa-ACE2 cells [15],> 9.59 µM
same,group average % of starting weight,SARS-CoV-2 [16]; 50 mg/kg PO BID,90%
same,"Percent weight from day 0, individual animals","SARS-CoV-2 [16]; 50 mg/kg, Day 1",100.619% and 100% and 99.9008% and 97.2408% and 100.231%
same,"Percent weight from day 0, individual animals","SARS-CoV-2 [16]; 50 mg/kg, Day 2",97.6006% and 97.2498% and 96.3294% and 93.8963% and 97.0023%
same,"Percent weight from day 0, individual animals","SARS-CoV-2 [16]; 50 mg/kg, Day 3",96.13% and 95.8747% and 93.0556% and 92.5585% and 94.3121%
same,"Percent weight from day 0, individual animals","SARS-CoV-2 [16]; 50 mg/kg, Day 4",94.4272% and 93.9649% and 89.1865% and 91.7224% and 90.8532%
same,"Percent weight from day 0, individual animals","SARS-CoV-2 [16]; 50 mg/kg, Day 5",93.4985% and 90.2215% and 86.4087% and 91.3043% and 88.9316%
same,group average % of starting weight,SARS-CoV-2 [16]; 150 mg/kg PO BID,89%
same,"Percent weight from day 0, individual animals","SARS-CoV-2 [16]; 150 mg/kg, Day 1",99.3145% and 100.794% and 101.014% and 100.59% and 100.598%
same,"Percent weight from day 0, individual animals","SARS-CoV-2 [16]; 150 mg/kg, Day 2",97.0009% and 97.9349% and 97.6599% and 97.2199% and 98.281%
same,"Percent weight from day 0, individual animals","SARS-CoV-2 [16]; 150 mg/kg, Day 3",94.7729% and 96.1875% and 94.7738% and 95.7035% and 94.843%
same,"Percent weight from day 0, individual animals","SARS-CoV-2 [16]; 150 mg/kg, Day 4",92.1165% and 92.5338% and 92.3635% and 94.524% and 91.4798%
same,"Percent weight from day 0, individual animals","SARS-CoV-2 [16]; 150 mg/kg, Day 5",90.4884% and 88.2446% and 89.2356% and 90.9014% and 88.0419%
same,group average % of starting weight,SARS-CoV-2 [16]; 500 mg/kg PO BID,97%
same,"Percent weight from day 0, individual animals","SARS-CoV-2 [16]; 500 mg/kg, Day 1",100.542% and 100.174% and 100.172% and 100.97% and 95.4962%
same,"Percent weight from day 0, individual animals","SARS-CoV-2 [16]; 500 mg/kg, Day 2",100.619% and 100.174% and 98.4483% and 98.806% and 95.246%
same,"Percent weight from day 0, individual animals","SARS-CoV-2 [16]; 500 mg/kg, Day 3",101.161% and 99.7394% and 97.8448% and 97.1642% and 96.9975%
same,"Percent weight from day 0, individual animals","SARS-CoV-2 [16]; 500 mg/kg, Day 4",100.774% and 99.5656% and 97.1552% and 94.5522% and 97.9983%
same,"Percent weight from day 0, individual animals","SARS-CoV-2 [16]; 500 mg/kg, Day 5",100.31% and 99.7394% and 95.9483% and 95.597% and 98.0817%
same,Emax,"Calu-3 cells [17]; Calu-3, 48 h, read-out: Calu-3 cell count Sinf Average",100%
same,EC50,"Calu-3 cells [17]; Calu-3, read-out: Calu-3 cell count EC50 GeoMean, detail block",> 9.98 µM
same,Emax,"HeLa-ACE2 cells [18]; HeLa-ACE2, 24 h, read-out: HeLa-ACE2 cell count Sinf Average",100%
same,EC50,"HeLa-ACE2 cells [18]; HeLa-ACE2, read-out: HeLa-ACE2 cell count EC50 GeoMean, detail block",> 9.59 µM
